# Test results from article PMC9640990 (Frontiers in Pharmacology, 2022).
# Legend:
# [1] = rats; approximately
# [2] = 1990, cited from earlier work
# hOAT3 = hOAT3 (Homo sapiens, UniProt Q8TCC7); assay: Inhibition of hOAT3-mediated uptake of 3H-ES in hOAT3-MDCK cells; assay type: cell-based; settings: hOAT3-MDCK cells
# Excerpt: (§1) Considering the relative exposure characteristics, GA and PCA were selected as PK-marker and Q-marker components of PCE in previous studies ([Ma et al., 2015]; [Ma et al., 2016]; [Li et al., 2021b]). In this study, we investigated the concentration-dependent inhibitions of GA and PCA on multiple transporters, including OAT1, OAT3, OCT2, MDR1, and BCRP. Stably expressing cell lines of hOAT1-MDCK, hOAT3-MDCK, hOCT2-S2, hMDR1-MDCK, hBCRP-MDCK, and their mock cells were obtained from Japan Fuji Biomedical Co., Ltd. The cells were maintained in DMEM (Sigma) supplemented with 10% FCS, 1% non-essential amino acids (Sigma), and 2% L-glutamine. The medium for the Transwell® plates (Corning Costar, Cambridge, MA, United States) was supplemented with 0.1% gentamicin. Membrane filters were placed in a 12 mm well with 1.5 and 0.5 ml of culture medium in the basolateral and apical compartments, respectively. Cells were cultured at 37°C in an atmosphere of 5% CO2. The inhibition experiments were adapted from previous methods with minor modifications ([Li et al., 2021a]; [2021b]).
# Briefly, the hOAT1-MDCK, hOAT3-MDCK, and hOCT2-S2 cells were trypsinized and suspended in the culture medium to provide a density of 1.5 × 10^5 cells/ml. After incubating for 48 h, the cells were washed twice with preheated DPBS and then pre-incubated with DPBS for 10 min at 37°C. 500 µl of DPBS containing probe substrates was added to initiate the uptake in the presence or absence of GA, PCA or positive inhibitors. The hMDR1-MDCK and hBCRP-MDCK cells were suspended at a density of 4.0 × 10^5 cells/ml. After cultivation for 7 days, cells were washed twice and equilibrated for 30 min at 37°C with the pre-warmed HBSS buffer. […] The radioactive intensity of ^14C-PAH, ^3H-ES, and ^14C-TEA was measured using a Tri-Carb 2910TR scintillator (PerkinElmer, United States). Fluorescence was measured at 485 nm (excitation) and 546 nm (emission) for rhodamine 123, and 425 nm (excitation) and 528 nm (emission) for lucifer yellow. IC50 values were determined by employing GraphPad Prism 9.
# MDR1 mRNA = MDR1 mRNA expression in Caco-2 cells (qRT-PCR); assay type: cell-based; settings: 48 h pretreatment, bosentan 20 μM, GA 50 μM, PCA 50 μM, PCE 100 mg/ml
# Protocol: (§2) After the incubation period, cells were harvested from the Transwell inserts for RNA extraction. […] Real-time quantitative PCR (qRT-PCR) was performed on an ABI Prism 7900HT Sequence Detection System (Applied Biosystems, Foster City, CA, United States) for the analysis of MDR1 and BCRP genes. Primers of housekeeping gene β-actin was used as internal controls. […] The relative gene expression levels were determined using the comparative CT method (ΔΔCT method). The cut-off CT was set at 35 cycles for all analyses. An arbitrary classification system was assigned to the data, designating relative expression levels >2 as high mRNA expression, levels between 2 and 1 as moderate mRNA expression, levels between 1 and 0.1 as low mRNA expression and levels <0.1 as unexpressed.
# BCRP mRNA = BCRP mRNA expression in Caco-2 cells (qRT-PCR); assay type: cell-based; settings: 48 h pretreatment, bosentan 20 μM, GA 50 μM, PCA 50 μM, PCE 100 mg/ml
# Protocol: as §2
# hOCT2 = target: T1, hOCT2 (Homo sapiens, UniProt O15244); assay: Inhibition of hOCT2-mediated uptake of 14C-TEA in hOCT2-S2 cells; assay type: cell-based
# T1 construct: host or cells: S2
# T1 sequence (O15244 1-555): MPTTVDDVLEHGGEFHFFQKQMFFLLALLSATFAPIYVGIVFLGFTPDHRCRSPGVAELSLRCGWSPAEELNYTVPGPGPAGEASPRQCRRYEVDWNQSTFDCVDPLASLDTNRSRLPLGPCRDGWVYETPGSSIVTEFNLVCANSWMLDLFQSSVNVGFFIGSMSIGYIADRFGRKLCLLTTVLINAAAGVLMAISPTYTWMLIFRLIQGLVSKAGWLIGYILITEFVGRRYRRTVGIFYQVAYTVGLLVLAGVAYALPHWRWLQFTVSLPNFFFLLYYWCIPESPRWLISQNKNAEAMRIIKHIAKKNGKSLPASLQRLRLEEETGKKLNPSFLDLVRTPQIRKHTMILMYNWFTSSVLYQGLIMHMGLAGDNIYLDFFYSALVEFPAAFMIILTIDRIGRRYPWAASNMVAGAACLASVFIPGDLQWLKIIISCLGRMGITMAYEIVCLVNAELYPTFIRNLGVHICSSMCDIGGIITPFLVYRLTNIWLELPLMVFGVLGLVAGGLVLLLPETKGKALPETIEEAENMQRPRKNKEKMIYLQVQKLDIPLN
# Excerpt: as §1, with “Membrane filters were placed in a 12 mm well with 1.5 and 0.5 ml of culture medium in the basolateral and apical compartments, respectively. Cells were cultured at 37°C in an atmosphere of 5% CO2. The inhibition experiments were adapted from previous methods with minor modifications ([Li et al., 2021a]; [2021b]).” left out
# Briefly, the hOAT1-MDCK, hOAT3-MDCK, and hOCT2-S2 cells were trypsinized and suspended in the culture medium to provide a density of 1.5 × 10^5 cells/ml. […] The radioactive intensity of ^14C-PAH, ^3H-ES, and ^14C-TEA was measured using a Tri-Carb 2910TR scintillator (PerkinElmer, United States). Fluorescence was measured at 485 nm (excitation) and 546 nm (emission) for rhodamine 123, and 425 nm (excitation) and 528 nm (emission) for lucifer yellow. IC50 values were determined by employing GraphPad Prism 9.
# Sequence of hOAT3 (Q8TCC7 whole entry): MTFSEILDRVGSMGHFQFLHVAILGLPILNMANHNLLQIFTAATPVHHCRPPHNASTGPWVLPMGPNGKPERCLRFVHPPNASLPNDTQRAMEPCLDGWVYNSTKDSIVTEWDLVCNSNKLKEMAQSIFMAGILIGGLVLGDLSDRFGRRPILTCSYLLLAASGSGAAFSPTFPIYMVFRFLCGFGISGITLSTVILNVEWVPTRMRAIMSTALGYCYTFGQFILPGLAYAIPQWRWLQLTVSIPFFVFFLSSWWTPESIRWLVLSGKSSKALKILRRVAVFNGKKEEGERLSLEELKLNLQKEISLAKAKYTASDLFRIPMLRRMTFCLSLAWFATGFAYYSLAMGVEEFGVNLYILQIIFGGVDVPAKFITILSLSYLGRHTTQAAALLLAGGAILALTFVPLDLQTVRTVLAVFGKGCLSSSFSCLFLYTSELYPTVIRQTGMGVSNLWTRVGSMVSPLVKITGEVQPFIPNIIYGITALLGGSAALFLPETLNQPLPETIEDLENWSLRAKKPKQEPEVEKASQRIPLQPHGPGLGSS
structure (smiles),measurement,setting,value
"O=C(O)c1cn(C2CC2)c2cc(N3CCNCC3)c(F)cc2c1=O [CIP, ciprofloxacin]",reduction of circulating CIP by concurrent use of PCE,[1],40%–50%
same,share of an intravenous dose eliminated into the intestine,"[2]; ref Rohwedder et al., Haslam et al., 2011",Approximately 20%
same,excreted in unchanged form into the urine,[2]; ref Vance-Bryan et al.,Approximately 60%
CN/C(=N/CCSCc1nc[nH]c1C)NC#N [cimetidine],effect of positive inhibitor on hOAT3,hOAT3,Significant inhibitory effects
"COc1ccccc1Oc1c(NS(=O)(=O)c2ccc(C(C)(C)C)cc2)nc(-c2ncccn2)nc1OCCO [bosentan, Bosentan]",increase of MDR1 (P-gp) mRNA expression,MDR1 mRNA,7.36 fold
same,increase of BCRP mRNA expression,BCRP mRNA,4.31 fold
CO[C@H]1/C=C/O[C@@]2(C)Oc3c(C)c(O)c4c(O)c(c(/C=N/N5CCN(C)CC5)c(O)c4c3C2=O)NC(=O)/C(C)=C\C=C\[C@H](C)[C@H](O)[C@@H](C)[C@@H](O)[C@@H](C)[C@H](OC(C)=O)[C@@H]1C [rifampicin],effect of positive inhibitor on hOCT2,hOCT2,Significant inhibitory effects
